Experiments:
[1] = tested on: canine acute nephritis; experiment: treatment of canine acute nephritis; assay type: in vivo, dogs; conditions: 14 days, n = 10; for Positive rate of white blood cell (+++, %): urine
Protocol: (§1) Anemoside B4 injection prepared in example 3, with a concentration of 50 mg/mL.
Dogs suffering from acute nephritis are cases received by various pet hospitals in Chengdu city.
The sick dogs are characterized by loss of appetite, indigestion, depression, and a slight increase in body temperature.
(§2) Anemoside B4 injection was intravenously injected, 2 mL/time in low-dose group, 4 mL/time in medium-dose group, 8 mL/time in high-dose group, once a day; anemoside B4 injection was intramuscularly injected, 1 mL/time in low-dose group, 2 mL/time in the middle-dose group, 4 mL/time in the high-dose group, twice a day; the treatment was kept for 14 days.

[2] = tested on: canine distemper; experiment: treatment of canine distemper; assay type: in vivo, dogs; conditions: for Cure / Death: 14 days, 10 dogs treated
Protocol: as §1
Dogs suffering from canine distemper are cases received by various pet hospitals in Chengdu.
According to the clinical symptoms, canine distemper can be divided into early, middle and late stages.
The vomit is mucus or yellow liquid, while the stool is dark brown or covered with mucus. As the progress of the disease course, dogs with canine distemper often develop secondary bacterial infections due to their decreased resistance.
as §2

[3] = high-dose, intramuscular injection 4 mL/time (50 mg/mL), twice a day
[4] = high-dose, intravenous injection 8 mL/time (50 mg/mL), once a day
[5] = low-dose, intramuscular injection 1 mL/time (50 mg/mL), twice a day
[6] = low-dose, intravenous injection 2 mL/time (50 mg/mL), once a day
[7] = medium-dose, intramuscular injection 2 mL/time (50 mg/mL), twice a day
[8] = medium-dose, intravenous injection 4 mL/time (50 mg/mL), once a day

## C=C(C)[C@@H]1CC[C@]2(C(=O)O[C@@H]3O[C@H](CO[C@@H]4O[C@H](CO)[C@@H](O[C@@H]5O[C@@H](C)[C@H](O)[C@@H](O)[C@H]5O)[C@H](O)[C@H]4O)[C@@H](O)[C@H](O)[C@H]3O)CC[C@]3(C)[C@H](CC[C@@H]4[C@@]5(C)CC[C@H](O[C@@H]6OC[C@H](O)[C@H](O)[C@H]6O[C@@H]6O[C@@H](C)[C@H](O)[C@@H](O)[C@H]6O)[C@@](C)(CO)[C@@H]5CC[C@]43C)[C@H]12 [anemoside B4]
[1]; [3]
  Body temperature: 39.0 ± 0.2 °C
  Mortality rate: 50%
  Positive rate of urine protein (+++, %): 60%
  Urine specific gravity: 1.064 ± 0.02
  Positive rate of white blood cell (+++, %): 70%
[1]; [4]
  Body temperature: 38.5 ± 0.4 °C
  Mortality rate: 30%
  Positive rate of urine protein (+++, %): 30%
  Urine specific gravity: 1.003 ± 0.01
  Positive rate of white blood cell (+++, %): 30%
[1]; [5]
  Body temperature: 39.5 ± 0.3 °C
  Mortality rate: 60%
  Positive rate of urine protein (+++, %): 80%
  Urine specific gravity: 1.123 ± 0.01
  Positive rate of white blood cell (+++, %): 80%
[1]; [6]
  Body temperature: 38.7 ± 0.5 °C
  Mortality rate: 50%
  Positive rate of urine protein (+++, %): 50%
  Urine specific gravity: 1.017 ± 0.25
  Positive rate of white blood cell (+++, %): 60%
[1]; [7]
  Body temperature: 39.3 ± 0.4 °C
  Mortality rate: 60%
  Positive rate of urine protein (+++, %): 70%
  Urine specific gravity: 1.094 ± 0.04
  Positive rate of white blood cell (+++, %): 80%
[1]; [8]
  Body temperature: 38.8 ± 0.3 °C
  Mortality rate: 40%
  Positive rate of urine protein (+++, %): 40%
  Urine specific gravity: 1.005 ± 0.09
  Positive rate of white blood cell (+++, %): 40%
[2]; dogs
  therapeutic effect on canine distemper (conclusion in words): a better therapeutic effect on canine distemper
[2]; [3]
  Cure: 5 dog
  Death: 5 dog
[2]; [4]
  Cure: 6 dog
  Death: 4 dog
[2]; [5]
  Cure: 3 dog
  Death: 7 dog
[2]; [6]
  Cure: 4 dog
  Death: 6 dog
[2]; [7]
  Cure: 4 dog
  Death: 6 dog
[2]; [8]
  Cure: 5 dog
  Death: 5 dog

From US11510933B2, “Use of Pulsatilla chinensis extract in the preparation of drugs for treatment of viral and/or bacterial diseases” (priority 2018, dated 2022)
